Experimental data reported in ChEMBL document CHEMBL1153542, “RNase H active site inhibitors of human immunodeficiency virus type 1 reverse transcriptase: design, biochemical activity, and structural information” (J Med Chem, 2009).
Activity calls are given as the source filed them. The rule behind the calls is not given here.

Columns and labels:
[1] = tested on: Human immunodeficiency virus; assay: Antiviral activity against HIV infected in human MT4 cells up to 100 uM by multicycle infectivity assay; format: functional, organism-based
[2] = target: Ribonuclease H1 (Homo sapiens) (UniProt O60930); assay: Inhibition of human recombinant ribonuclease H1 in presence of Mg2+
Ribonuclease H1 = target: T1, Ribonuclease H1 (Homo sapiens, UniProt O60930); assay: Inhibition of human RNase H assessed as substrate cleavage by fluorescence assay
T1 sequence (O60930 whole entry): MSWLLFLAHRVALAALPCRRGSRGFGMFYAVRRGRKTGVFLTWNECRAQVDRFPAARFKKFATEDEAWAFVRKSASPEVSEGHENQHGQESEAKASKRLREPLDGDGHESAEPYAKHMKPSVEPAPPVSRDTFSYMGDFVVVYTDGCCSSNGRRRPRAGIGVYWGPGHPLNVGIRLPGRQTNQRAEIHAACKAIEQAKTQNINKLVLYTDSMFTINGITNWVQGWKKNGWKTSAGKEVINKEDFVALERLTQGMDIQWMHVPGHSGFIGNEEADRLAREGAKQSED

| IC50 [2] [µM] | IC50 (Ribonuclease H1) [µM] | Compound | Activity [1] |
| --- | --- | --- | --- |
|  |  | COc1ccc(Cc2nc(O)c(O)c(C(=O)O)n2)cc1Br | inactive |
|  |  | O=C(O)c1nc(Cc2ccccc2)nc(O)c1O | inactive |
|  |  | O=C(O)c1nc(Cc2c(Br)sc3ccc(Cl)cc23)nc(O)c1O | inactive |
| > 100 |  | O=C(O)c1nc(-c2ccccc2)nc(O)c1O | inactive |
|  |  | COC(=O)c1nc(Cc2ccccc2)nc(O)c1O | inactive |
|  |  | O=C(O)c1nc(Cc2ccc(Cl)c(Cl)c2)nc(O)c1O | inactive |
|  | 5.9 | O=c1[nH]c2ccccc2c(=O)n1O | inactive |
|  |  | O=C(O)c1nc(CCc2ccccc2)nc(O)c1O | inactive |
